This is an account of results in US9056840B2, “Coelenterazine analogues and coelenteramide analogues” (JNC Corporation, priority 2010, dated 2015).

Holding throughout (assay type): physicochemical
Series [1] can be described thus: Fluorescence spectra of coelenteramide analogue alone (absence of apoaequorin). The note with it: analogue alone 8 μg/ml; for Coelenteramide (Buffer containing CaCl2) Fluorescence intensity (rlu) / Coelenteramide (Buffer containing CaCl2) Maximum fluorescence wavelength λmax (nm): 10 mM CaCl2 buffer pH 7.6, excitation 337 nm; for Coelenteramide (EDTA-containing buffer) Fluorescence intensity (rlu) / Coelenteramide (EDTA-containing buffer) Maximum fluorescence wavelength λmax (nm): 10 mM EDTA buffer pH 7.6, excitation 337 nm. As for the experimental part:
(§1) The fluorescence spectra were determined as follows. For coelenteramide analogue alone, the fluorescence was measured according to the procedures for semi-synthetic gFP and semi-synthetic BFP described in EXAMPLES 11 and 12, except for in the absence of apoaequorin, using 1 ml of 50 mM Tris-HCl (pH 7.6) containing 10 mM EDTA and 1 mM DTT or 1 ml of 50 mM Tris-HCl (pH 7.6) containing 10 mM CaCl2 and 1 mM DTT, in the final concentration of coelenteramide analogue adjusted to 8 μg/ml. The fluorescence spectra were measured at 25° C. in a quartz cell (10 mm light path length) using a Jasco FP-6500 spectrofluorometer (excitation wavelength: 337 nm, emission/excitation bandwidth: 3 nm; response: 0.5 sec, scan speed, 1000 nm/min).

The target in series [2] is T1, apoaequorin (Aequorea victoria, UniProt P07164).
T1 construct: purchased Chisso Corporation
T1 sequence (P07164 other isoform, or with tags, fused parts or gaps with the stated changes): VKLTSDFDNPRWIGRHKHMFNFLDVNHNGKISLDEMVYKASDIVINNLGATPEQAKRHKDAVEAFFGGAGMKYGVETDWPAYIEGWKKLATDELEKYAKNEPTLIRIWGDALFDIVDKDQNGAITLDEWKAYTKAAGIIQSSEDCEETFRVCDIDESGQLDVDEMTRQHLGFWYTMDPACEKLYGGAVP
Description: Fluorescence spectra of semi-synthetic gFP (coelenteramide analogue + apoaequorin, EDTA). As to conditions: 10 mM EDTA buffer, excitation 337 nm. As to the method:
Semi-synthetic gFP was prepared from recombinant apoaequorin and coelenteramide analogues as follows. In 1 ml of 50 mM Tris-HC 1 (pH 7.6) containing 10 mM EDTA and 1 mM DTT, apoaequorin (0.2 mg) was mixed with 8 μl of a coelenteramide analogue (1 μg/μl in anhydrous methanol). The mixture was allowed to stand 4° C. for 16 hours to prepare semi-synthetic gFP-like protein (hereinafter sometimes simply referred to as “semi-synthetic gFP”).
as §1

Series [3] concerns the target T1, apoaequorin. The series can be described thus: Fluorescence spectra of semi-synthetic BFP (coelenteramide analogue + apoaequorin, CaCl2). As to conditions: 10 mM CaCl2 buffer, excitation 337 nm. As for the experimental part: Semi-synthetic gFP was prepared from recombinant apoaequorin and coelenteramide analogues as follows. In 1 ml of 50 mM Tris-HC 1 (pH 7.6) containing 10 mM CaCl2 and 1 mM DTT, apoaequorin (0.2 mg) was mixed with 8 μl of a coelenteramide analogue (1 μg/μl in anhydrous methanol). The mixture was allowed to stand at 4° C. for 16 hours to prepare semi-synthetic BFP-like protein (hereinafter sometimes simply referred to as “semi-synthetic BFP”).
as §1

Structures are written as SMILES.

`O=C(Cc1ccc(O)cc1)Nc1ncc(-c2ccc(O)cc2)nc1-c1cccs1` [Compound 4f, 2-(4-Hydroxyphenyl)-N-[5-(4-hydroxyphenyl)-3-(thiophen-2-yl)pyrazin-2-yl]acetamide]: in series [1], the “Coelenteramide (Buffer containing CaCl2) Fluorescence intensity (rlu)” value turned out to be 2.2 rlu, the “Coelenteramide (Buffer containing CaCl2) Maximum fluorescence wavelength λmax (nm)” value worked out at 447.0 nm, the “Coelenteramide (EDTA-containing buffer) Fluorescence intensity (rlu)” value is given as 2.3 rlu and the “Coelenteramide (EDTA-containing buffer) Maximum fluorescence wavelength λmax (nm)” value amounted to 448.5 nm. Moreover, in series [2], the “Semi-synthetic gFP (EDTA-containing buffer) Fluorescence intensity (rlu)” value (“Semi-synthetic gFP … (rlu)” for short) is 70.5 rlu and the “Semi-synthetic gFP (EDTA-containing buffer) Maximum fluorescence wavelength λmax (nm)” value (from here on “Semi-synthetic gFP … (nm)”) was found to be 536.5 nm. Besides, in series [3], the Fluorescence intensity worked out at 96.4 rlu and the “Semi-synthetic BFP (Buffer containing CaCl2) Maximum fluorescence wavelength λmax (nm)” value (shortened to “Semi-synthetic BFP”) is 527.0 nm.

Consider `O=C(Cc1ccc(O)cc1)Nc1ncc(-c2ccc(O)cc2)nc1-c1ccsc1` [Compound 4g, 2-(4-Hydroxyphenyl)-N-[5-(4-hydroxyphenyl)-3-(thiophen-3-yl)pyrazin-2-yl]acetamide], for which, in series [1], the “Coelenteramide (Buffer containing CaCl2) Fluorescence intensity (rlu)” value was 6.1 rlu, the “Coelenteramide (Buffer containing CaCl2) Maximum fluorescence wavelength λmax (nm)” value was 470.5 nm, the “Coelenteramide (EDTA-containing buffer) Fluorescence intensity (rlu)” value turned out to be 5.5 rlu and the “Coelenteramide (EDTA-containing buffer) Maximum fluorescence wavelength λmax (nm)” value is reported as 473.0 nm. In series [2], the “Semi-synthetic gFP … (rlu)” value turned out to be 108.5 rlu and the “Semi-synthetic gFP … (nm)” value is recorded as 512.5 nm. Further, in series [3], the Fluorescence intensity came out at 195.7 rlu and the “Semi-synthetic BFP” value stood at 501.5 nm.

Regarding `O=C(Cc1ccc(O)cc1)Nc1ncc(-c2ccc(O)cc2)nc1-c1csc2ccccc12` [Compound 4i, N-[3-(Benzo[b]thiophen-3-yl)-5-(4-hydroxyphenyl)pyrazin-2-yl]-2-(4-hydroxyphenyl) acetamide], in series [1], the “Coelenteramide (Buffer containing CaCl2) Fluorescence intensity (rlu)” value was found to be 11.8 rlu, the “Coelenteramide (Buffer containing CaCl2) Maximum fluorescence wavelength λmax (nm)” value is reported as 468.0 nm, the “Coelenteramide (EDTA-containing buffer) Fluorescence intensity (rlu)” value is 12.1 rlu and the “Coelenteramide (EDTA-containing buffer) Maximum fluorescence wavelength λmax (nm)” value came out at 471.5 nm. For the same compound, in series [2], the “Semi-synthetic gFP … (rlu)” value is 106.5 rlu and the “Semi-synthetic gFP … (nm)” value is 512.5 nm. Also, in series [3], the Fluorescence intensity is 80.0 rlu and the “Semi-synthetic BFP” value was 494.0 nm.

Consider `O=C(Cc1ccc(O)cc1)Nc1ncc(-c2ccc(O)cc2)nc1-c1ccc(O)cc1` [Compound 4j, N-[3,5-Bis(4-hydroxyphenyl)pyrazin-2-yl]-2-(4-hydroxyphenyl)acetamide], for which, in series [1], the “Coelenteramide (Buffer containing CaCl2) Fluorescence intensity (rlu)” value came to 22.4 rlu, the “Coelenteramide (Buffer containing CaCl2) Maximum fluorescence wavelength λmax (nm)” value was 481.0 nm, the “Coelenteramide (EDTA-containing buffer) Fluorescence intensity (rlu)” value came to 22.5 rlu and the “Coelenteramide (EDTA-containing buffer) Maximum fluorescence wavelength λmax (nm)” value was 482.5 nm. For the same compound, in series [2], the “Semi-synthetic gFP … (rlu)” value amounted to 69.7 rlu and the “Semi-synthetic gFP … (nm)” value is recorded as 492.5 nm. Besides, in series [3], the Fluorescence intensity was 100.5 rlu and the “Semi-synthetic BFP” value came out at 489.0 nm.

Consider `O=C(Cc1ccc(O)cc1)Nc1ncc(-c2ccc(O)cc2)nc1-c1cc2sccc2s1` [Compound 4k, 2-(4-Hydroxyphenyl)-N-[5-(4-hydroxyphenyl)-3-(thieno[3,2-b]thiophen-2-yl)pyrazin-2-yl]acetamide], for which, in series [1], the “Coelenteramide (Buffer containing CaCl2) Fluorescence intensity (rlu)” value amounted to 9.7 rlu, the “Coelenteramide (Buffer containing CaCl2) Maximum fluorescence wavelength λmax (nm)” value was 491.0 nm, the “Coelenteramide (EDTA-containing buffer) Fluorescence intensity (rlu)” value was found to be 10.3 rlu and the “Coelenteramide (EDTA-containing buffer) Maximum fluorescence wavelength λmax (nm)” value is reported as 487.5 nm. In series [2], the “Semi-synthetic gFP … (rlu)” value came to 139.9 rlu and the “Semi-synthetic gFP … (nm)” value came out at 532.0 nm. Moreover, in series [3], the Fluorescence intensity is on record as 148.2 rlu and the “Semi-synthetic BFP” value is reported as 538.5 nm.

For `O=C(Cc1ccc(O)cc1)Nc1ncc(-c2ccc(O)cc2)nc1-c1cc2sc3ccsc3c2s1` [Compound 4l, 2-(4-Hydroxyphenyl)-N-[5-(4-hydroxyphenyl)-3-(thieno[3,2-b:2′,3′-d]thiophen-2-yl)pyrazin-2-yl]acetamide], in series [1], the “Coelenteramide (Buffer containing CaCl2) Fluorescence intensity (rlu)” value is reported as 8.8 rlu, the “Coelenteramide (Buffer containing CaCl2) Maximum fluorescence wavelength λmax (nm)” value is 523.0 nm, the “Coelenteramide (EDTA-containing buffer) Fluorescence intensity (rlu)” value amounted to 9.3 rlu and the “Coelenteramide (EDTA-containing buffer) Maximum fluorescence wavelength λmax (nm)” value was determined as 523.5 nm. In series [2], the “Semi-synthetic gFP … (rlu)” value came to 140.5 rlu and the “Semi-synthetic gFP … (nm)” value worked out at 524.5 nm. In series [3], the Fluorescence intensity worked out at 63.5 rlu and the “Semi-synthetic BFP” value came out at 468.0 nm.

Take `O=C(Cc1ccc(O)cc1)Nc1ncc(-c2ccc(O)cc2)nc1-c1ccc([N+](=O)[O-])cc1` [Compound 4o, 2-(4-Hydroxyphenyl)-N-[5-(4-hydroxyphenyl)-3-(4-nitrophenyl)pyrazin-2-yl]acetamide]: in series [1], the “Coelenteramide (Buffer containing CaCl2) Fluorescence intensity (rlu)” value is 2.1 rlu, the “Coelenteramide (Buffer containing CaCl2) Maximum fluorescence wavelength λmax (nm)” value turned out to be 478.5 nm, the “Coelenteramide (EDTA-containing buffer) Fluorescence intensity (rlu)” value was found to be 2.1 rlu and the “Coelenteramide (EDTA-containing buffer) Maximum fluorescence wavelength λmax (nm)” value turned out to be 482.5 nm. In series [2], the “Semi-synthetic gFP … (rlu)” value is on record as 3.4 rlu and the “Semi-synthetic gFP … (nm)” value turned out to be 485.0 nm. Besides, in series [3], the Fluorescence intensity is 3.9 rlu and the “Semi-synthetic BFP” value was found to be 477.5 nm.

On to `O=C(Cc1ccc(O)cc1)Nc1ncc(-c2ccc(O)cc2)nc1C#Cc1ccccc1` [Compound 4p, 2-(4-Hydroxyphenyl)-N-[5-(4-hydroxyphenyl)-3-(phenylethynyl)pyrazin-2-yl]acetamide], for which, in series [1], the “Coelenteramide (Buffer containing CaCl2) Fluorescence intensity (rlu)” value came to 5.4 rlu, the “Coelenteramide (Buffer containing CaCl2) Maximum fluorescence wavelength λmax (nm)” value was 484.5 nm, the “Coelenteramide (EDTA-containing buffer) Fluorescence intensity (rlu)” value turned out to be 5.3 rlu and the “Coelenteramide (EDTA-containing buffer) Maximum fluorescence wavelength λmax (nm)” value stood at 476.0 nm. Further, in series [2], the “Semi-synthetic gFP … (rlu)” value was found to be 21.1 rlu and the “Semi-synthetic gFP … (nm)” value is reported as 523.0 nm. Further, in series [3], the Fluorescence intensity was determined as 70.0 rlu and the “Semi-synthetic BFP” value is 548.5 nm.

For the compound `O=C(Cc1ccc(O)cc1)Nc1ncc(-c2ccc(O)cc2)nc1CCc1ccccc1` [Compound 4r, 2-(4-Hydroxyphenyl)-N-[5-(4-hydroxyphenyl)-3-phenethylpyrazin-2-yl]acetamide], in series [1], the “Coelenteramide (Buffer containing CaCl2) Fluorescence intensity (rlu)” value came out at 10.2 rlu, the “Coelenteramide (Buffer containing CaCl2) Maximum fluorescence wavelength λmax (nm)” value is 483.0 nm, the “Coelenteramide (EDTA-containing buffer) Fluorescence intensity (rlu)” value came to 10.3 rlu and the “Coelenteramide (EDTA-containing buffer) Maximum fluorescence wavelength λmax (nm)” value was 481.0 nm. Also, in series [2], the “Semi-synthetic gFP … (rlu)” value turned out to be 176.4 rlu and the “Semi-synthetic gFP … (nm)” value is listed as 468.0 nm. In series [3], the Fluorescence intensity is 159.9 rlu and the “Semi-synthetic BFP” value is listed as 468.0 nm.

For `O=C(Cc1ccc(O)cc1)Nc1cnc(-c2ccc(O)cc2)cn1` [Compound 4s, 2-(4-Hydroxyphenyl)-N-[5-(4-hydroxyphenyl)pyrazin-2-yl]acetamide], in series [1], the “Coelenteramide (Buffer containing CaCl2) Fluorescence intensity (rlu)” value amounted to 2.0 rlu, the “Coelenteramide (Buffer containing CaCl2) Maximum fluorescence wavelength λmax (nm)” value was 468.5 nm, the “Coelenteramide (EDTA-containing buffer) Fluorescence intensity (rlu)” value came out at 1.9 rlu and the “Coelenteramide (EDTA-containing buffer) Maximum fluorescence wavelength λmax (nm)” value came out at 457.5 nm. For the same compound, in series [2], the “Semi-synthetic gFP … (rlu)” value is 106.4 rlu and the “Semi-synthetic gFP … (nm)” value is recorded as 460.0 nm. In series [3], the Fluorescence intensity came to 22.1 rlu and the “Semi-synthetic BFP” value is listed as 408.5 nm.
